From the supplement of paper PMC10307832

Assays:
Experiment in all cases: relative viability (nuclei count vs DMSO), 5 days (fraction); higher = more cells survive
IU1-47 + Phenformin = compound: CC1=CC(=C(N1C2=CC=C(C=C2)Cl)C)C(=O)CN3CCCCC3 [IU1-47] + N=C(N)NC(=N)NCCc1ccccc1 [Phenformin] (partner 250 µM)
Outline: (§1)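 Relative viability was taken as the ratio of nuclei in treated wells to nuclei in vehicle wells. Lung cancer cell lines in 1536-well plates received compounds by pin tool one day after seeding, either one drug alone or a fixed anchor-drug dose plus five library-drug doses (not always all listed) in √10 steps. Nuclei were counted on 4× images after 5 days of treatment, and values are medians of duplicate plates.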

FG-4592 + Trametinib = compound: Cc1nc(C(=O)NCC(=O)O)c(O)c2ccc(Oc3ccccc3)cc12 [FG-4592] + CC(=O)Nc1cccc(-n2c(=O)n(C3CC3)c(=O)c3c(Nc4ccc(I)cc4F)n(C)c(=O)c(C)c32)c1 [Trametinib] (partner 0.02 µM)
Outline: as §1

FG-4592 + Pictilisib = compound: Cc1nc(C(=O)NCC(=O)O)c(O)c2ccc(Oc3ccccc3)cc12 [FG-4592] + CS(=O)(=O)N1CCN(Cc2cc3nc(-c4cccc5[nH]ncc45)nc(N4CCOCC4)c3s2)CC1 [Pictilisib] (partner 1 µM)
Outline: as §1

FG-4592 + Vorinostat = compound: Cc1nc(C(=O)NCC(=O)O)c(O)c2ccc(Oc3ccccc3)cc12 [FG-4592] + O=C(CCCCCCC(=O)Nc1ccccc1)NO [Vorinostat] (partner 1 µM)
Outline: as §1

Row | Cell Line | relative viability (IU1-47 + Phenformin; first compound 0.08 µM) | relative viability (IU1-47 + Phenformin; first compound 0.253 µM) | relative viability (IU1-47 + Phenformin; first compound 0.8 µM) | relative viability (IU1-47 + Phenformin; first compound 2.53 µM) | relative viability (IU1-47 + Phenformin; first compound 8 µM) | relative viability (FG-4592 + Trametinib; first compound 0.08 µM) | relative viability (FG-4592 + Trametinib; first compound 0.253 µM) | relative viability (FG-4592 + Trametinib; first compound 0.8 µM) | relative viability (FG-4592 + Trametinib; first compound 2.53 µM) | relative viability (FG-4592 + Trametinib; first compound 8 µM) | relative viability (FG-4592 + Pictilisib; first compound 0.08 µM) | relative viability (FG-4592 + Pictilisib; first compound 0.253 µM) | relative viability (FG-4592 + Pictilisib; first compound 0.8 µM) | relative viability (FG-4592 + Pictilisib; first compound 2.53 µM) | relative viability (FG-4592 + Pictilisib; first compound 8 µM) | relative viability (FG-4592 + Vorinostat; first compound 0.08 µM) | relative viability (FG-4592 + Vorinostat; first compound 0.253 µM) | relative viability (FG-4592 + Vorinostat; first compound 0.8 µM) | relative viability (FG-4592 + Vorinostat; first compound 2.53 µM) | relative viability (FG-4592 + Vorinostat; first compound 8 µM)
1 | NCI-H358 | 0.328 | 0.323 | 0.339 | 0.307 | 0.274 | 0.138 | 0.135 | 0.122 | 0.16 | 0.124 | 0.323 | 0.344 | 0.289 | 0.292 | 0.326 | 0.61 | 0.567 | 0.745 | 0.88 | 0.716
2 | NCI-H441 | 0.994 | 0.978 | 0.787 | 0.887 | 0.787 | 0.497 | 0.433 | 0.401 | 0.3 | 0.497 | 0.585 | 0.524 | 0.509 | 0.483 | 0.464 | 0.692 | 0.809 | 0.855 | 0.694 | 0.696
3 | NCI-H460 | 0.599 | 0.536 | 0.614 | 0.532 | 0.313 | 0.163 | 0.13 | 0.127 | 0.0958 | 0.129 | 0.236 | 0.367 | 0.314 | 0.466 | 0.381 | 0.707 | 0.691 | 0.771 | 0.748 | 0.755
4 | NCI-H520 | 0.602 | 0.484 | 0.59 | 0.626 | 0.346 | 0.594 | 0.557 | 0.573 | 0.719 | 0.473 | 0.269 | 0.293 | 0.225 | 0.291 | 0.258 | 0.693 | 0.709 | 0.635 | 0.702 | 0.673
5 | NCI-H596 | 0.786 | 0.61 | 0.78 | 0.709 | 0.677 | 0.861 | 0.804 |  | 0.842 | 0.564 | 0.337 | 0.359 |  | 0.377 | 0.433 | 0.441 | 0.507 |  | 0.637 | 0.584
6 | NCI-H647 | 0.449 | 0.597 |  | 0.553 | 0.238 | 0.444 | 0.453 | 0.336 | 0.448 | 0.333 |  | 0.395 |  | 0.452 | 0.53 | 0.35 | 0.366 | 0.551 | 0.486 | 0.237
7 | NCI-H650 | 0.489 | 0.483 | 0.466 | 0.491 | 0.476 | 1.06 | 0.936 | 0.916 | 1 | 0.838 | 0.879 | 0.916 | 0.739 | 0.801 | 0.872 | 0.352 | 0.574 | 0.384 | 0.339 | 0.365
8 | NCI-H661 | 0.286 | 0.295 | 0.28 | 0.245 | 0.291 | 0.559 | 0.525 | 0.536 | 0.554 | 0.525 | 0.29 |  | 0.431 | 0.473 | 0.371 | 0.778 | 0.827 | 0.832 | 0.755 | 0.839
9 | NCI-H727 | 0.675 | 0.712 | 0.56 | 0.63 | 0.387 | 0.363 | 0.335 | 0.352 | 0.357 | 0.38 | 0.311 | 0.274 | 0.307 | 0.335 | 0.452 | 1.07 | 1.17 | 1.28 | 1.33 | 1.21
10 | NCI-H838 | 0.559 | 0.578 | 0.549 | 0.562 | 0.318 | 0.497 | 0.51 | 0.412 | 0.473 | 0.46 | 0.481 | 0.396 | 0.363 | 0.494 | 0.433 | 0.742 | 0.729 | 0.696 | 0.839 | 0.705
11 | NCI-H1355 | 0.432 | 0.501 | 0.441 |  | 0.398 | 0.462 | 0.455 |  | 0.421 | 0.337 | 0.389 | 0.393 |  | 0.379 | 0.366 | 0.553 | 0.632 |  | 0.596 | 0.644
12 | NCI-H1395 | 0.408 | 0.456 | 0.472 | 0.436 | 0.374 | 0.961 | 1.01 | 0.936 | 1.03 | 0.773 | 0.747 | 0.622 |  | 0.776 | 0.531 | 0.729 | 0.771 | 0.493 | 0.675 | 0.623
13 | NCI-H1437 | 0.337 | 0.272 | 0.25 | 0.341 | 0.297 | 0.539 | 0.414 | 0.473 | 0.47 | 0.301 | 0.447 | 0.437 | 0.337 | 0.37 | 0.269 | 0.751 | 0.786 | 0.912 | 0.894 | 0.722
14 | NCI-H1650 | 0.412 | 0.367 | 0.419 | 0.366 | 0.326 | 0.604 | 0.573 | 0.615 | 0.603 | 0.628 | 0.428 | 0.549 | 0.44 | 0.586 | 0.617 | 0.762 | 0.53 | 0.502 | 0.55 | 0.465
15 | NCI-H1651 | 0.342 | 0.308 | 0.373 | 0.319 | 0.297 | 0.85 | 0.836 | 0.76 | 0.774 | 0.82 | 0.541 | 0.575 | 0.534 | 0.635 | 0.454 | 0.597 | 0.596 | 0.546 | 0.469 | 0.538
